Data set [1] has as its system Boll Weevils. Kind of data set: Competitive field test with released weevils, four trap array. The format is in vivo, Anthonomus grandis. The following applies: 1.0 mg of the compound. From the text:
The second series of experiments involved an array of four traps. […] The two treatments being tested simultaneously in this competitive arrangement were placed alternately in the traps, i.e., the two traps baited with the same treatment were located diagonally from each other. Odorants diluted in hexane were released from glass capillaries placed in small vials in a container in each trap. […] Traps were then immediately baited. In each test, traps were checked and insects were removed at 1530 hrs and 1700 hrs on the day of release, and before 0900 hrs the next day (the time at which the test was terminated) in order to remove those insects which might have responded prior to darkness on the day of release.

Data set [2] is described as follows: Gas chromatographic analyses of the aldehyde released in the field. The following applies: field conditions in which it was released.
For the next data set, the system named is female C. capitata. Kind of data set: Wind tunnel assay with female Mediterranean fruit flies. The format is in vivo, Ceratitis capitata. The following applies: laboratory flight tunnel. On the procedure:
Flies were assayed in a rectangular glass wind tunnel (90 cm×90 cm×280 cm; flow rate=20 cm/sec) using laboratory-reared 5- to 7-day-old female C. capitata. The odor from 100 male C. capitata (30-50% calling) was obtained, and split through “Teflon” tubing to a secondary container containing the green leaf odor [either 100 μL of a 0.05% mixture in paraffin oil of trans-2-hexen-1-ol, 1-hexanol, cis-3-hexen-1-ol, trans-2-hexenal, and hexanal at a ratio of 158:100:63:24:11 (=glv, green leaf volatiles); or 100 μL of a 10% solution in silicon oil of trans-2-hexenal alone]. The odors were released into the wind tunnel via “Teflon” tubing to […] yellow plastic spheres [McInnis, J. Econ. Entomol. (in press)] with multiple holes to allow odors to emanate. Fifty flies were released 200 cm downwind from the source spheres, and both the number of flies on the spheres at a given time, and total number of landings by the flies were recorded during a 30-min test period. The test with the green leaf volatile blend was replicated five times; the test with trans-2-hexenal was replicated six times.

Data set [3] relates to Single Olfactory Cells Responsive to Volatiles Emanating from a Crushed Cotton Square. The data set can be described thus: Single-cell electrophysiology: action potentials from single olfactory cells. Type of data set: cell-based, Anthonomus grandis. The following applies: volatiles emanating from 1 μg of odorant; cell responsive to crushed cotton square. From the text:
Single-cell recording techniques are described in detail elswhere [Dickens, Mitt. Schweiz. Entomol. Ges. 52: 203 (1979); Dickens et al., J. Chem. Ecol. 10: 583 (1984)]. In brief, microelectrodes used for recordings were constructed from 50.8 μm diameter tungsten wire electrolytically sharpened to a tip of 1-2 μm. The recording electrode was positioned under optical control (150-200 X) with a Leitz high-power micromanipulator near either the base of one of the three sensory bands encircling the club, or the base of an individual sensillum just distal to each sensory band region. The ground electrode was inserted in either the rostrum or distal end of the scape. Action potentials were amplified and conditioned by a Grass P-15 preamplifier and Tektronix 5A22N amplifier prior to visualization on a Tektronix 5223 digitizing oscilloscope. The signal then passed through a Teac R51-D data recorder for recording on cassette tapes prior to visualization on a Tektronix 5111 analog oscilloscope. Data were photographed from the analog oscilloscope with a Tektronix C-5C oscilloscope camera. Trains of action potentials were counted visually.
Upon obtaining a single cell preparation, odorous stimuli were presented every 3 min. […] The first two stimuli tested were volatiles emanating from 1 μg of grandlure, followed by volatiles emanating from a crushed cotton square. These two stimuli served to determine whether the cell was activated by the attractive pheromone of the boll weevil and/or volatiles emanating from its food source.

The subject of another data set is Scolytus multistriatus. Kind of data set: Field test with bark beetles, 4-wk, Orono, Me. Type of data set: in vivo. The following applies: for captures of bark beetles in traps when released with multilure, relative to the pheromone alone: 10 mg each; for Mean % Trap Capture: hexanal 10 mg, 1-hexanol 10 mg, multilure, alone or combined, 4-wk test period. On the procedure: Mean % trap captures were calculated from competitive field tests during a 4-wk test period on campus of the University of Maine, Orono, Me. Total number of S. multistriatus captured was 423. Multilure consisted of α-multistriatin, methyl heptanol, and cubebene as obtained commercially from Dewill Corp., Elmhurst, Ill. Both 1-hexanol and hexanal were released from cigarette filters after dilution in the […] described [McKibben, supra]. Mean weekly trap captures were compared by Duncan's multiple range test [Duncan, Biometrics 11: 1-42 (1955)].

Data set [4] deals with Boll Weevils. The data set can be described thus: Competitive field test with released weevils, triangular trap array. The format is in vivo, Anthonomus grandis. The following applies: for Mean Trap Capture: three replicates; for activity alone in competition with the other treatments: triangular array, 100 mg alone. On the procedure: Two series of field tests were performed involving released boll weevils, in which grandlure was placed in competition with grandlure + the synergist. In the first series of experiments, a triangular array of traps was used. One trap was placed at each corner of a 20 m equilateral triangle (total of three traps). The three treatments released in this triangular array of traps were: 1) grandlure 3 mg; 2) grandlure 3 mg+synergist 100 mg; and 3) synergist 100 mg. The three synergists tested in these experiments were: trans-2-hexen-1-ol, 1-hexanol, and cis-3-hexen-1-ol. Cigarette filters were used to release the experimental odorants. One hundred insets (50 males and 50 females) were released along a line 20 m from each side of the triangle (300 insects total) at ca. 1000 hrs prior to baiting of the traps at 1200 hrs. Traps were check and insects were removed at 1400 hrs, 1600 hrs, and 1800 hrs, the times at which the test was terminated.

The mark [5] stands for this setting: grandlure 3 mg vs 1-hexanol 100 mg vs both.
The mark [6] stands for this setting: grandlure 3 mg vs cis-3-hexen-1-ol 100 mg vs both.

As to `CCC/C=C/C=O` [trans-2-hexenal], the “synergism with grandlure (0.8 mg) in competition with grandlure (0.8 mg) alone” value (shortened to “synergism with grandlure (0.8 mg)”) in the data set with Boll Weevils [1] was “no significant difference”. Moreover, the “degradation under field conditions” value in data set [2] is “in part been degraded”. The “response of female flies to male odor plus the green leaf odor relative to male odor alone” value in the data set on female C. capitata is “enhanced response”. In addition, in data set [3], the “Response in impulses/initial 500 msec, Cell #1” value was found to be 27 impulses/initial 500 msec; the “Response in impulses/initial 500 msec, Cell #2” value is recorded as 24 impulses/initial 500 msec; the “Response in impulses/initial 500 msec, Cell #3” value was found to be 1 impulses/initial 500 msec; the “Response in impulses/initial 500 msec, Cell #4” value was 38 impulses/initial 500 msec.
In the case of `CCCCCC=O` [hexanal], in the data set with Scolytus multistriatus, the “captures of bark beetles in traps when released with multilure, relative to the pheromone alone” value was “increased” and the “Mean % Trap Capture” value is listed as 0.3a %. For the same molecule, in data set [3], the “Response in impulses/initial 500 msec, Cell #1” value stood at 16 impulses/initial 500 msec; the “Response in impulses/initial 500 msec, Cell #2” value was 13 impulses/initial 500 msec; the “Response in impulses/initial 500 msec, Cell #4” value stood at 27 impulses/initial 500 msec.
On to `CC1=CC[C@H]2C[C@@H]1C2(C)C` [(-)-α-pinene, (−)-α-pinene], for which, in data set [3], the “Response in impulses/initial 500 msec, Cell #1” value turned out to be 4 impulses/initial 500 msec; the “Response in impulses/initial 500 msec, Cell #2” value came out at 0 impulses/initial 500 msec; the “Response in impulses/initial 500 msec, Cell #3” value was determined as 1 impulses/initial 500 msec; the “Response in impulses/initial 500 msec, Cell #4” value was determined as 7 impulses/initial 500 msec.
In the case of `C=CC(=C)CCC=C(C)C` [myrcene], in data set [3], the “Response in impulses/initial 500 msec, Cell #1” value was 2 impulses/initial 500 msec; the “Response in impulses/initial 500 msec, Cell #2” value is on record as 1 impulses/initial 500 msec; the “Response in impulses/initial 500 msec, Cell #3” value is listed as 1 impulses/initial 500 msec; the “Response in impulses/initial 500 msec, Cell #4” value is 3 impulses/initial 500 msec.
`CCCCCCC=O` [heptanal]: in data set [3], the “Response in impulses/initial 500 msec, Cell #1” value is listed as 1 impulses/initial 500 msec; the “Response in impulses/initial 500 msec, Cell #2” value is 0 impulses/initial 500 msec; the “Response in impulses/initial 500 msec, Cell #3” value was found to be 0 impulses/initial 500 msec; the “Response in impulses/initial 500 msec, Cell #4” value is 16 impulses/initial 500 msec.
Take `C=CC(C)(O)CCC=C(C)C` (stereo not shown) [linalool]: in data set [3], the “Response in impulses/initial 500 msec, Cell #1” value worked out at 3 impulses/initial 500 msec; the “Response in impulses/initial 500 msec, Cell #2” value worked out at 2 impulses/initial 500 msec; the “Response in impulses/initial 500 msec, Cell #3” value amounted to 1 impulses/initial 500 msec; the “Response in impulses/initial 500 msec, Cell #4” value amounted to 11 impulses/initial 500 msec.
As to `CC(C)=CCC/C(C)=C\CO` [nerol], in data set [3], the “Response in impulses/initial 500 msec, Cell #1” value stood at 3 impulses/initial 500 msec; the “Response in impulses/initial 500 msec, Cell #2” value is listed as 4 impulses/initial 500 msec; the “Response in impulses/initial 500 msec, Cell #3” value turned out to be 8 impulses/initial 500 msec; the “Response in impulses/initial 500 msec, Cell #4” value was determined as 11 impulses/initial 500 msec.
Consider `CC(C)=CCC/C(C)=C/CO` [geraniol], for which, in data set [3], the “Response in impulses/initial 500 msec, Cell #1” value worked out at 1 impulses/initial 500 msec; the “Response in impulses/initial 500 msec, Cell #2” value was determined as 3 impulses/initial 500 msec; the “Response in impulses/initial 500 msec, Cell #3” value is reported as 5 impulses/initial 500 msec; the “Response in impulses/initial 500 msec, Cell #4” value was determined as 0 impulses/initial 500 msec.
Regarding `CCC/C=C\CO` [cis-2-hexen-1-ol], the “synergism with grandlure (0.8 mg)” value in the data set on Boll Weevils [1] is on record as “no synergism”.
As for `CCCCCCO` [1-hexanol], the “synergism with grandlure (0.8 mg)” value with Boll Weevils [1] is “effective synergists”. In addition, in the data set with Scolytus multistriatus, the “captures of bark beetles in traps when released with multilure, relative to the pheromone alone” value is reported as “increased” and the “Mean % Trap Capture” value was 0a %. In the data set on Boll Weevils [4] (setting [5]), the “% Total” value came out at 0% and the “Mean Trap Capture” value is 0 A. In addition, the “activity alone in competition with the other treatments” value with Boll Weevils [4] is “relatively inactive”. For the same molecule, in data set [3], the “Response in impulses/initial 500 msec, Cell #1” value stood at 11 impulses/initial 500 msec; the “Response in impulses/initial 500 msec, Cell #2” value was found to be 30 impulses/initial 500 msec; the “Response in impulses/initial 500 msec, Cell #3” value is on record as 42 impulses/initial 500 msec.
In the case of gossonerol, in data set [3], the “Response in impulses/initial 500 msec, Cell #1” value was found to be 3 impulses/initial 500 msec and the “Response in impulses/initial 500 msec, Cell #4” value stood at 12 impulses/initial 500 msec.
Turning to `CC(C)=CCC[C@H](C)[C@@]1(O)CC=C(C)CC1` [β-bisabolol], in data set [3], the “Response in impulses/initial 500 msec, Cell #1” value was 3 impulses/initial 500 msec; the “Response in impulses/initial 500 msec, Cell #2” value is recorded as 3 impulses/initial 500 msec; the “Response in impulses/initial 500 msec, Cell #3” value came out at 5 impulses/initial 500 msec; the “Response in impulses/initial 500 msec, Cell #4” value is 2 impulses/initial 500 msec.
In the case of α-bisabolol, in data set [3], the “Response in impulses/initial 500 msec, Cell #1” value came out at 3 impulses/initial 500 msec; the “Response in impulses/initial 500 msec, Cell #2” value is on record as 12 impulses/initial 500 msec; the “Response in impulses/initial 500 msec, Cell #3” value was 3 impulses/initial 500 msec; the “Response in impulses/initial 500 msec, Cell #4” value stood at 2 impulses/initial 500 msec.
In the case of `CCCCCCCCC=O` [nonanal], in data set [3], the “Response in impulses/initial 500 msec, Cell #1” value is on record as 2 impulses/initial 500 msec; the “Response in impulses/initial 500 msec, Cell #2” value amounted to 0 impulses/initial 500 msec; the “Response in impulses/initial 500 msec, Cell #3” value came to 0 impulses/initial 500 msec; the “Response in impulses/initial 500 msec, Cell #4” value was 4 impulses/initial 500 msec.
Regarding `C=C1CC/C=C(\C)CC[C@@H]2[C@@H]1CC2(C)C` [β-caryophyllene], in data set [3], the “Response in impulses/initial 500 msec, Cell #1” value turned out to be 2 impulses/initial 500 msec; the “Response in impulses/initial 500 msec, Cell #2” value was found to be 2 impulses/initial 500 msec; the “Response in impulses/initial 500 msec, Cell #3” value stood at 0 impulses/initial 500 msec; the “Response in impulses/initial 500 msec, Cell #4” value was 1 impulses/initial 500 msec.
As for (−)-limonene [(-)-limonene], in data set [3], the “Response in impulses/initial 500 msec, Cell #1” value is reported as 0 impulses/initial 500 msec; the “Response in impulses/initial 500 msec, Cell #2” value is given as 0 impulses/initial 500 msec; the “Response in impulses/initial 500 msec, Cell #3” value stood at 2 impulses/initial 500 msec; the “Response in impulses/initial 500 msec, Cell #4” value stood at 1 impulses/initial 500 msec.
As to `CC/C=C\CCO` [cis-3-hexen-1-ol], in the data set on Boll Weevils [1], the “synergism with grandlure (0.8 mg)” value is on record as “effective synergists”. Further, in the data set with Boll Weevils [4] (setting [6]), the “% Total” value is on record as 0% and the “Mean Trap Capture” value was 0 B. The “activity alone in competition with the other treatments” value in the data set on Boll Weevils [4] is “relatively inactive”.
On to `O=Cc1ccccc1` [benzaldehyde], for which, in data set [3], the “Response in impulses/initial 500 msec, Cell #1” value came to 3 impulses/initial 500 msec; the “Response in impulses/initial 500 msec, Cell #2” value was 0 impulses/initial 500 msec; the “Response in impulses/initial 500 msec, Cell #3” value is given as 1 impulses/initial 500 msec; the “Response in impulses/initial 500 msec, Cell #4” value is reported as 0 impulses/initial 500 msec.

These data come from patent US6413508B1, “Green leaf volatiles as synergists for insect pheromones” (The United States of America as represented by the …, priority 1988, dated 2002).
